One series relates to topoisomerase II. The series is described as follows: Topoisomerase-II poison assay. It counts as biochemical. The source says:
FIG. 7 illustrates data from a toposiomerase-II poison assay, using VP-16 (Etoposide) as a control Topoisomerase-II poison.

Another series can be described thus: Formulated solubility. Type of series: physicochemical.
In series [1] the test system is caspase-3 activation in HCT-116. The series is described as follows: Caspase-3/7 assay. Type of series: cell-based. The note with it: HCT-116 cells, 24 hr, 1, 3 and 5 uM. Here is the method: The following protocol was followed (24 hr). On Day 1, seed 0.015×10^6 HCT-116 cells/50 ul/well. Incubate o/n in 37° C. CO2 incubator. On Day 2, remove 25 ul of medium from wells. Treat HCT-116 cells with 1, 3, 5 uM CX-3543. Treat positive control group with Staurosporin 0.01, 0.1, 1 uM. Keep six negative control wells treated with medium only (add 25 ul of diluted sample to appropriate wells). Incubate for 24 h at 37° C. in a CO2 incubator. On Day 3, prepare Apo-ONE Homogeneous Caspase-3/7 assay reagent (Promega) at 10 ul reagent/1 ml buffer. Add 50 ul of diluted reagent. Incubate one hour at room temp. Measure fluorescence at 485/520.

In another series the test system is HCT-116 xenograft. The series is described as follows: HCT-116 colorectal cancer xenograft model. Type of series: in vivo. The note with it: HCT-116; 10, 15 and 20 mg/kg; FIG. 8. How it is done:
Two xenograft models for inoculation were harvested and diluted to a concentration of 50×10^6 cells/ml or 100×10^6 cells/ml. Four to six week old nude mice were injected with 0.1 ml of the cell suspension containing between 5×10^6 and 10×10^6 cells. When tumors are of a suitable size compound dosing is commenced. Tumor sizes are measured throughout the treatment period with calipers and body weights also measured.
CX-3543 was tested against a number of cancer xenograft models to determine the in vivo efficacy. HCT-116 and PC-3 tumor-bearing nu/nu or MiaPaCa tumor-bearing SCID mice were administered reference and testing compounds on schedules indicated in figure legends. Tumor measurements were taken with calipers every other day or twice a week starting from the first day of dosing and body weights were measured at the same time points. Tumor volumes were calculated from the standard formula, W^2×L/2. c-MYC mRNA expression was measured with QPCR from all tumor samples following the final dose. 18S ribosomal RNA was used as a housekeeper and also quantified with QPCR.

Series [2] concerns panel of cancer cell-lines. Kind of series: MTS cell survival assay, panel of cancer cell-lines. It counts as cell-based. The settings on record: for IC50: MTS. How it is done:
The antitumor range of action of CX-3543 was tested in vitro using a panel of cancer cell-lines and evaluated using an MTS cell survival assay. Cells were exposed to CX3543 at various concentrations over a four day period, and IC50 values were calculated. Generally, 2,000 to 5,000 cells were seeded in each well of a 96-well plate and incubated overnight. A serial dilution of testing compounds was added to cells and further incubated for 4 days at 37° C., in a 5% CO2 humidified incubator. The survival cell numbers were evaluated by the MTS method as described in the manufacturer's protocol (Promega). […] In particular examples, IC50 values were measured by Alamar Blue.
In general terms: Tetrazolium assays rely on reduction of a dye to a coloured formazan, in cell work by metabolically active cells.

A further series has as its system HCT-116 cells. Kind of series: DNA cell cycle analysis. Type of series: cell-based. The settings on record: serum-starved HCT-116 cells, 24 hr, 1 to 5 um. Here is the method:
The following protocol was followed in this example. Seed 1.5-2.0×10^6 cells/10 cm dish (seed one extra dish for unstained cells). Incubate cells in 37° C. humidified 5% CO2 incubator for 24 hours. For synchronizing cells in a low growth state to make cells quiescent, remove media and rinse once with serum-free media, add 10 ml of serum-free media to each dish. Incubate the cells for 24 hr in a 37° C. humidified 5% CO2 incubator. Remove media and add treatment (diluted in serum contained media, 10 ml): 1-5 μM CX-3543 plus control. Incubate the cells for 24 hr in a 37° C. humidified 5% CO2 incubator.
To trypsinize/isolate cells, remove treatment. Add 3 ml trypsin/EDTA solution. Keep floating cells and combine with attached cells. Incubate for 5 min in a 37° C. humidified 5% CO2 incubator. Add 3 ml media (containing FBS) to wells and pipette into centrifuge tube. Centrifuge at 1000 rpm for 5 minutes. Decant supernatant and re-suspend pellet in 2-3 ml PBS. Count cells and wash cells once by putting 2×10^6 cells/tube, adding 2 ml PBS and centrifuging at 1000 rpm for 5 minutes. Re-suspend pelleted cells in 0.3 ml cold PBS.
To fix cells, gently add 0.7 ml ice cold 70% ethanol drop wise to tube containing 0.3 ml of cell suspension in PBS while vortexing. Leave on Ice for one hour (or up to a few days at 4C). Centrifuge at 1000 rpm for 5 minutes. Wash one time with cold PBS (1-2 ml). […]

Values after ≈ are worked out from the molar mass of the structure shown. “Also recorded” adds a separate entry of the source. Some results are limits rather than exact numbers.

The text below walks through data of patent publication US7507727B2, “Substituted quinobenzoxazine analogs and methods of using thereof” (Cylene Pharmaceuticals, Inc., priority 2003, dated 2009).

The solubility is the concentration that dissolves in the medium under given conditions. Read a low solubility as a poorly soluble substance. Usually IC50 stands for the point on the concentration scale where inhibition reaches its midpoint. High values mean a need for much substance, low ones inhibition by little substance. For the compound `CN1CCCC1CCNC(=O)c1cn2c3c(c(N4CCC(c5cnccn5)C4)c(F)cc3c1=O)Oc1cc3ccccc3cc1-2` (stereo not drawn) [CX-3543], the “inhibitory activity against topoisomerase II” value in the series on topoisomerase II is reported as “not to be an inhibitor or poison”. Moreover, the “concentration up to which no topoisomerase dependent strand breaks were induced” value in the series on topoisomerase II (supercoiled DNA, FIG. 7) was over 100 µM. Besides, in “Formulated solubility”, the solubility was about 20 mg/mL (≈ 33.1 mM). In series [1], the caspase-3 levels result is “dose responsive increase”. Besides, in the series with HCT-116 xenograft, the tumor growth inhibition entry was “inhibits tumor growth; also recorded: significant tumor growth inhibition”. For the same compound, the IC50 in series [2] (96 h, PC3 (Prostate), 4 days) was determined as 3200 nM; in series [2] (Homo sapiens, 786-0, 96 h, 786-O, 4 days) it was 2100 nM; in series [2] (Homo sapiens, 96 h, A549, 4 days), 2900 nM; in series [2] (Homo sapiens, 96 h, HCT-116 (Colorectal), 4 days) it was 3300 nM; in series [2] (Homo sapiens, 96 h, HT-29, 4 days), 5500 nM; in series [2] (Homo sapiens, 96 h, HeLa (cervical), 4 days), 3300 nM. The IC50 in series [2] (Homo sapiens, 96 h, HepG2, 4 days) worked out at 2500 nM; in series [2] (Homo sapiens, 96 h, MDA-MB-231 (Breast), 4 days) it was 2400 nM; in series [2] (Homo sapiens, 96 h, MDA-MB-468 (Breast), 4 days) it was 1500 nM; in series [2] (Homo sapiens, 96 h, Ramos (Burkitt's Lymphoma), 4 days), 300 nM; in series [2] (Homo sapiens, MIA PaCa-2, 96 h, MiaPaca, 4 days), 2800 nM. Moreover, the “IC50 in MTS assays over a broad range of tumor types” value in series [2] (four day exposure) was “submicromolar to single digit micromolar”. For the same compound, in the series on HCT-116 cells, the “effect on the distribution of cells throughout the cell cycle” value is reported as “no observable effect”.
